# Tested on: human L540Cy tumors
# Set-up: species or system SCID mice
# Conditions: mouse, in vivo
smiles,measurement,setting,value
"CC1=NC[C@H](O)[C@@H](C(=O)O)N1 [S,S-β-hydroxyectoine]","tumor development compared with PBS without S,S-β-hydroxyectoine",,faster tumor development
same,average survival rates calculated according to Kaplan-Meier,iv,30.0 (±2) days
